Measured values: patent US5352804A, “Isolation and structure of Halistatin 2” (Arizona Board of Regents, a body corporate, acting on …, priority 1993, dated 1994)
Entries after “also recorded” stand apart in the source; their conditions may differ. Like-named read-outs stand apart in the source and are kept apart here.

Tests used:
[1] = system: P388 lymphocytic leukemia; assay: P388 lymphocytic leukemia in vivo (NCI protocol); conditions: 40 μg/kg host body weight, BDF mice
Method: When BDF, mice were treated with 40 μg/kg host body weight of halistatin 2.

human tumor cell lines = assay: cells; assay type: cell-based
NCI-H322M = assay: cells; assay type: cell-based; conditions: Homo sapiens
[2] = system: L1210 murine leukemia cells; assay: mitotic index (accumulation of cells arrested in mitosis); assay type: cell-based; conditions: at cytotoxic concentrations
[3] = system: L1210 murine leukemia cells; assay: cytotoxicity in L1210 murine leukemia cells; assay type: cell-based
tubulin [4] = assay: binding of radiolabeled vinblastine to tubulin
tubulin [5] = assay: glutamate-induced polymerization of purified tubulin; assay type: biochemical
Method: Halistatin 2 was evaluated to determine if it was an antimitotic agent which interfered with the polymerization of purified tubulin and microtubule assembly dependent on microtubule-associated proteins isolated.
(§1) For radiolabeled GTP binding to tubulin, the same drug concentrations inhibited the reaction by 17% and 51% with halistatin 2.

EKVX = assay: NCI human tumor in vitro primary screen; assay type: cell-based; conditions: non-small cell lung cancer
Excerpt: (§2) Only two hundred years ago, many diseases ravaged humankind. Many of these diseases now have been controlled or eradicated. In the development of the means to treat or control these diseases, work with the appropriate common experimental animals was of critical importance. With the various types of cancers, and with the HIV virus, such work is presently ongoing. The research for the treatment of various types of cancer is coordinated in the United States by the National Cancer Institute (NCI). NCI, as a government entity, has been charged with assisting anti-cancer research. To establish whether a substance has anti cancer activity, NCI has established a variety of protocols, one of which involves testing the candidate substance against a cell line panel containing 60 human tumor cell lines. This protocol has been verified and is generally accepted throughout the scientific community. This protocol and the established statistical means of evaluating the results obtained therefrom have been fully described in the literature. See Principles & Practice of Oncology PPO Updates, Volume 3, Number 10, Oct. 1989, by Michael R. Boyd, M.D., Ph.D., for an indepth description of the test protocol. The statistical analysis is explained in "Display and Analysis of Patterns of Differential Activity of Drugs Against Human Tumor Cell Lines: Development of Means Graph and COMPARE Algorithm" Journal of the National Cancer Institute Reports Vol. 81, No. 14, Pg. 1088, Jul. 14, 1989, by K. D. Paull et al. Both of these references are incorporated herein by this reference thereto.
(§3) Biological Testing; Data Display and Analysis; Screening Data Summary. Freshly isolated halistatin 2 was tested in the NCI's human tumor, disease-oriented in vitro primary screen, and data calculations performed. Table 3 is a composite prepared from mean graphs constructed from the averaged GI50 values from quadruplicate screenings of Halistatin 2.

SN12C = assay: NCI human tumor in vitro primary screen; assay type: cell-based; conditions: renal cancer
Excerpt: as §2, §3

HOP-62 = assay: NCI human tumor in vitro primary screen; assay type: cell-based; conditions: non-small cell lung cancer
Excerpt: as §2, §3

HCC-2998 = assay: NCI human tumor in vitro primary screen; assay type: cell-based; conditions: colon cancer
Excerpt: as §2, §3

HOP-92 = assay: NCI human tumor in vitro primary screen; assay type: cell-based; conditions: non-small cell lung cancer
Excerpt: as §2, §3

SK-MEL-5 = assay: NCI human tumor in vitro primary screen; assay type: cell-based; conditions: melanoma
Excerpt: as §2, §3

SK-OV-3 = assay: NCI human tumor in vitro primary screen; assay type: cell-based; conditions: ovarian cancer
Excerpt: as §2, §3

HCT-15 = assay: NCI human tumor in vitro primary screen; assay type: cell-based; conditions: colon cancer
Excerpt: as §2, §3

M14 = assay: NCI human tumor in vitro primary screen; assay type: cell-based; conditions: melanoma
Excerpt: as §2, §3

tubulin [6] = assay: radiolabeled GTP binding to tubulin / nucleotide exchange on tubulin
Excerpt: as §1

[7] = read-out: Log10 GI50 (converted)
[8] = read-out: averaged negative log10 GI50 (converted)
[9] = read-out: Log10 TGI (converted)

C=C1CC2CCC34CC5OC6C(O3)C3OC(CCC3OC6(O)C5O4)CC(=O)OC3C(CC4OC(CCC1O2)CC(C)C4=C)OC1CC2OC4(CC2OC1C3C)CC1OC2(CC(C)C3OC5CC(C(O)CO)OC5CC3O2)CC(C)C1O4 (stereo not drawn) [halistatin 2]
cure rate [1]: 18% | life extension of those not cured [1]: 220% | survival rate [1]: 100% | potency (human tumor cell lines): especially noteworthy | screening profile (human tumor cell lines): characteristic of a general mechanistic class of tubulin-interactive antimitotics | GI50 (human tumor cell lines; Homo sapiens): ~0.7 nM | GI50 (NCI-H322M; [7]): 3.02 nM | IC (TGI) (NCI-H322M; read-out: Log10 TGI): 10 nM | GI50 (NCI-H322M; [8]): 3.02 nM | mitotic arrest / rise in mitotic index (in words) [2]: caused a significant rise in the mitotic index; also recorded: caused the accumulation of cells arrested in mitosis | mitotic index [2]: ≤ 20% | cytotoxicity (in words) [3]: significant cytotoxicity | IC50 ([3]; Mus musculus): 0.4 nM | inhibition of radiolabeled vinblastine binding to tubulin (in words) (tubulin [4]): inhibited the binding of radiolabeled vinblastine and GTP to tubulin | type of inhibition of vinblastine binding (in words) (tubulin [4]): noncompetitive inhibitor | inhibition of radiolabeled vinblastine binding to tubulin (tubulin [4]; 5 μM): 51% | inhibition of radiolabeled vinblastine binding to tubulin (tubulin [4]; 10 μM): 75% | inhibition of tubulin polymerization (in words) (tubulin [5]): inhibited tubulin polymerization | IC50 (tubulin [5]; purified tubulin): 4900 ± 500 nM | GI50 (EKVX; [7]): 4.07 nM | IC (TGI) (EKVX; [9]): 10 nM | GI50 (EKVX; [8]): 4.07 nM | GI50 (SN12C; [7]): 1.82 nM | IC (TGI) (SN12C; [9]): 10 nM | GI50 (SN12C; [8]): 1.82 nM | GI50 (HOP-62; [7]): 0.692 nM | IC (TGI) (HOP-62; [9]): 7.59 nM | GI50 (HOP-62; [8]): 0.692 nM | GI50 (HCC-2998; [7]): 1.29 nM | IC (TGI) (HCC-2998; [9]): 5.25 nM | GI50 (HCC-2998; [8]): 1.29 nM | GI50 (HOP-92; [7]): 1.2 nM | IC (TGI) (HOP-92; [9]): 10 nM | GI50 (HOP-92; [8]): 1.2 nM | GI50 (SK-MEL-5; [7]): 0.182 nM | IC (TGI) (SK-MEL-5; [9]): 1.82 nM | GI50 (SK-MEL-5; [8]): 0.182 nM | GI50 (SK-OV-3; [7]): 0.676 nM | IC (TGI) (SK-OV-3; [9]): 10 nM | GI50 (SK-OV-3; [8]): 0.676 nM | GI50 (HCT-15; [7]): 5.5 nM | IC (TGI) (HCT-15; [9]): 10 nM | GI50 (HCT-15; [8]): 5.5 nM | GI50 (M14; [7]): 0.676 nM | IC (TGI) (M14; [9]): 5.75 nM | GI50 (M14; [8]): 0.676 nM | inhibition of nucleotide exchange on tubulin (in words) (tubulin [6]): inhibit nucleotide exchange on tubulin | inhibition of radiolabeled GTP binding to tubulin (in words) (tubulin [6]): inhibited the binding of radiolabeled vinblastine and GTP to tubulin | inhibition of radiolabeled GTP binding to tubulin (tubulin [6]; 5 μM): 17% | inhibition of radiolabeled GTP binding to tubulin (tubulin [6]; 10 μM): 51% | inhibition of nucleotide exchange, comparison (in words) (tubulin [6]; 5 and 10 μM, comparator not given): superior as an inhibitor of nucleotide exchange
